# Assay results as given in ChEMBL document CHEMBL1155489, “Novel 3-O-pegylated carboxylate and 3-O-pegylated carbamate prodrugs of naltrexone for microneedle-enhanced transdermal delivery” (Bioorg Med Chem Lett, 2010).
# How the values were obtained:
# [1] = Solubility in 0.3 M acetate buffer at pH 5; assay type: physicochemical
# [2] = Solubility in 0.3 M acetate buffer at pH 5 relative to naltrexone; assay type: physicochemical
Compound,solubility thermodynamic [1],Ratio [2]
COCCOCCOCCC(=O)Oc1ccc2c3c1O[C@H]1C(=O)CC[C@@]4(O)[C@@H](C2)N(CC2CC2)CC[C@]314,952 mM,2.81
O=C(NCCOCCOCCO)Oc1ccc2c3c1O[C@H]1C(=O)CC[C@@]4(O)[C@@H](C2)N(CC2CC2)CC[C@]314,1040 mM,3.06
O=C(CCOCCOCCO)Oc1ccc2c3c1O[C@H]1C(=O)CC[C@@]4(O)[C@@H](C2)N(CC2CC2)CC[C@]314,629 mM,1.86
O=C1CC[C@@]2(O)[C@H]3Cc4ccc(O)c5c4[C@@]2(CCN3CC2CC2)[C@H]1O5 [NALTREXONE],338 mM,–
COCCOCCOCCNC(=O)Oc1ccc2c3c1O[C@H]1C(=O)CC[C@@]4(O)[C@@H](C2)N(CC2CC2)CC[C@]314,796 mM,2.35
